From patent US9732119B2, “Immunomodulators” (BRISTOL-MYERS SQUIBB COMPANY, priority 2014, dated 2017)
Positions of bridges follow the written chain, without caps; N, C: chain ends. Non-standard residues stand in square brackets, D forms with d. Residues, ends and D or L forms follow the SMILES beside them. Trp(1-CH2COOH) = N[C@@H](Cc1cn(CC(=O)O)c2ccccc12)C(=O)O; Phe(4-Cl) = N[C@@H](Cc1ccc(Cl)cc1)C(=O)O; Phe(4-F) = N[C@@H](Cc1ccc(F)cc1)C(=O)O; Phe(4-Me) = Cc1ccc(C[C@H](N)C(=O)O)cc1; Hyp = O=C(O)[C@@H]1C[C@@H](O)CN1; Aad = N[C@@H](CCCC(=O)O)C(=O)O; NMeNle = CCCC[C@H](NC)C(=O)O; Pip = O=C(O)[C@@H]1CCCCN1; Orn = NCCC[C@H](N)C(=O)O; Dab = NCC[C@H](N)C(=O)O; Dap = NC[C@H](N)C(=O)O; Ava = NCCCCC(=O)O

Biological target: T1, PD-1-Ig binding to PD-L1-TVMV-His (PD-L1-His) (Homo sapiens, UniProt Q9NZQ7)
T1 construct: hPDL1(19-239)-TVMV-His; made in house; host or cells: HEK293T cells
Experiment: PD-1/PD-L1 Homogenous Time-Resolved Fluorescence (HTRF) binding assay
Conditions: PD-1-Ig (20 nM) / PD-L1-His (10 nM); numeric values
Procedure, shortened: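 In dPBS with 0.1% BSA and 0.05% Tween-20, inhibitors were preincubated 15 min with 10 nM PD-L1-His before 20 nM PD-1-Ig was added for another 15 min. Binding read by time-resolved FRET between Eu-cryptate anti-Ig (1 nM) and APC anti-His (20 nM).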

T1 sequence (Q9NZQ7 with tags, fused parts or gaps): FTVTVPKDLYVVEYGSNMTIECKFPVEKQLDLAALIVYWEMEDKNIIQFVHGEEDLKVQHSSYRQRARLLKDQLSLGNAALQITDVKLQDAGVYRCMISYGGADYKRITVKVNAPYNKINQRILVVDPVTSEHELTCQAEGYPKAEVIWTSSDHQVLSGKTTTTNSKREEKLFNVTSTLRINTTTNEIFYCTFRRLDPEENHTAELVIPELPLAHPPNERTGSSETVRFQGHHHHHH

IC50 [nM] | Compound
8 | CCCC[C@H]1C(=O)N(C)[C@@H](CCCC)C(=O)N[C@@H](CC(C)C)C(=O)NCCC[C@H](N)C(=O)N[C@@H](Cc2ccc(Cl)cc2)C(=O)N2CCCC[C@H]2C(=O)N[C@@H](CC(N)=O)C(=O)N2CCC[C@H]2C(=O)N[C@@H](CN)C(=O)N[C@@H](CC(C)C)C(=O)N2C[C@H](O)C[C@H]2C(=O)N[C@@H](Cc2c[nH]c3ccccc23)C(=O)N[C@@H](CCN)C(=O)N[C@@H](Cc2cn(CC(=O)O)c3ccccc23)C(=O)N1C [Example 10545] (H-[Orn][Phe(4-Cl)][Pip]NP[Dap]L[Hyp]W[Dab][Trp(1-CH2COOH)][NMeNle][NMeNle]L; lactam 1-C)

Same assay, conditions: PD-1-Ig (20 nM) / PD-L1-His (10 nM); range classes

Compound | IC50 [nM]
CCCC[C@H]1C(=O)N(C)[C@@H](CCCC)C(=O)N[C@@H](CC(C)C)C(=O)NCCCCC(=O)N[C@@H](Cc2ccc(OC)cc2)C(=O)N2CCCC[C@H]2C(=O)N[C@@H](CC(N)=O)C(=O)N2CCC[C@H]2C(=O)N[C@@H](CN)C(=O)N[C@@H](CCC(=O)O)C(=O)N2C[C@H](O)C[C@H]2C(=O)N[C@@H](Cc2c[nH]c3ccccc23)C(=O)N[C@@H](CCN)C(=O)N[C@@H](Cc2cn(CC(=O)O)c3ccccc23)C(=O)N1C [Example 10542] (cyclo([Ava]Y(Me)[Pip]NP[Dap]E[Hyp]W[Dab][Trp(1-CH2COOH)][NMeNle][NMeNle]L)) | 1 to 9.9
CCCC[C@H]1C(=O)N(C)[C@@H](CCCC)C(=O)N[C@@H](CC(C)C)C(=O)NCCCCC(=O)N[C@@H](Cc2ccc(F)cc2)C(=O)N2CCCC[C@H]2C(=O)N[C@@H](CC(N)=O)C(=O)N2CCC[C@H]2C(=O)N[C@@H](CN)C(=O)N[C@@H](CCC(=O)O)C(=O)N2C[C@H](O)C[C@H]2C(=O)N[C@@H](Cc2c[nH]c3ccccc23)C(=O)N[C@@H](CCN)C(=O)N[C@@H](Cc2cn(CC(=O)O)c3ccccc23)C(=O)N1C [Example 10543] (cyclo([Ava][Phe(4-F)][Pip]NP[Dap]E[Hyp]W[Dab][Trp(1-CH2COOH)][NMeNle][NMeNle]L)) | 1 to 9.9
CCCC[C@H]1C(=O)N(C)[C@@H](CCCC)C(=O)N[C@@H](CC(C)C)C(=O)NCCCCC(=O)N[C@@H](Cc2ccc(Cl)cc2)C(=O)N2CCCC[C@H]2C(=O)N[C@@H](CC(N)=O)C(=O)N2CCC[C@H]2C(=O)N[C@@H](CN)C(=O)N[C@@H](CCC(=O)O)C(=O)N2C[C@H](O)C[C@H]2C(=O)N[C@@H](Cc2c[nH]c3ccccc23)C(=O)N[C@@H](CCN)C(=O)N[C@@H](Cc2cn(CC(=O)O)c3ccccc23)C(=O)N1C [Example 10544] (cyclo([Ava][Phe(4-Cl)][Pip]NP[Dap]E[Hyp]W[Dab][Trp(1-CH2COOH)][NMeNle][NMeNle]L)) | 1 to 9.9
CCCC[C@H]1C(=O)N(C)[C@@H](CCCC)C(=O)N[C@@H](CC(C)C)C(=O)NCCC[C@H](N)C(=O)N[C@@H](Cc2ccc(Cl)cc2)C(=O)N2CCCC[C@H]2C(=O)N[C@@H](CC(N)=O)C(=O)N2CCC[C@H]2C(=O)N[C@@H](CN)C(=O)N[C@@H](CCC(=O)O)C(=O)N2C[C@H](O)C[C@H]2C(=O)N[C@@H](Cc2c[nH]c3ccccc23)C(=O)N[C@@H](CCN)C(=O)N[C@@H](Cc2cn(CC(=O)O)c3ccccc23)C(=O)N1C [Example 10546] (H-[Orn][Phe(4-Cl)][Pip]NP[Dap]E[Hyp]W[Dab][Trp(1-CH2COOH)][NMeNle][NMeNle]L; lactam 1-C) | 10 to 99
CCCC[C@H]1C(=O)N(C)[C@@H](CCCC)C(=O)N[C@@H](CC(C)C)C(=O)NCCC[C@H](N)C(=O)N[C@@H](Cc2ccc(C)cc2)C(=O)N2CCCC[C@H]2C(=O)N[C@@H](CC(N)=O)C(=O)N2CCC[C@H]2C(=O)N[C@@H](CN)C(=O)N[C@@H](CCC(=O)O)C(=O)N2C[C@H](O)C[C@H]2C(=O)N[C@@H](Cc2c[nH]c3ccccc23)C(=O)N[C@@H](CCN)C(=O)N[C@@H](Cc2cn(CC(=O)O)c3ccccc23)C(=O)N1C [Example 10547] (H-[Orn][Phe(4-Me)][Pip]NP[Dap]E[Hyp]W[Dab][Trp(1-CH2COOH)][NMeNle][NMeNle]L; lactam 1-C) | 10 to 99

Now from value to compound:

IC50 [nM] | Compound
10 to 99 | CCCC[C@H]1C(=O)N(C)[C@@H](CCCC)C(=O)N[C@@H](CC(C)C)C(=O)NCCC[C@H](N)C(=O)N[C@@H](Cc2ccc(F)cc2)C(=O)N2CCCC[C@H]2C(=O)N[C@@H](CC(N)=O)C(=O)N2CCC[C@H]2C(=O)N[C@@H](CN)C(=O)N[C@@H](CCC(=O)O)C(=O)N2C[C@H](O)C[C@H]2C(=O)N[C@@H](Cc2c[nH]c3ccccc23)C(=O)N[C@@H](CCN)C(=O)N[C@@H](Cc2cn(CC(=O)O)c3ccccc23)C(=O)N1C [Example 10548] (H-[Orn][Phe(4-F)][Pip]NP[Dap]E[Hyp]W[Dab][Trp(1-CH2COOH)][NMeNle][NMeNle]L; lactam 1-C)
10 to 99 | CCCC[C@H]1C(=O)N(C)[C@@H](CCCC)C(=O)N[C@@H](CC(C)C)C(=O)NCCC[C@H](N)C(=O)N[C@@H](Cc2ccc(O)cc2)C(=O)N2CCCC[C@H]2C(=O)N[C@@H](CC(N)=O)C(=O)N2CCC[C@H]2C(=O)N[C@@H](CN)C(=O)N[C@@H](CCC(=O)O)C(=O)N2C[C@H](O)C[C@H]2C(=O)N[C@@H](Cc2c[nH]c3ccccc23)C(=O)N[C@@H](CCN)C(=O)N[C@@H](Cc2cn(CC(=O)O)c3ccccc23)C(=O)N1C [Example 10549] (H-[Orn]Y[Pip]NP[Dap]E[Hyp]W[Dab][Trp(1-CH2COOH)][NMeNle][NMeNle]L; lactam 1-C)
10 to 99 | CCCC[C@H]1C(=O)N(C)[C@@H](CCCC)C(=O)N[C@@H](CC(C)C)C(=O)NCCC[C@H](N)C(=O)N[C@@H](Cc2ccc(F)cc2)C(=O)N2CCCC[C@H]2C(=O)N[C@@H](CC(N)=O)C(=O)N2CCC[C@H]2C(=O)N[C@@H](CN)C(=O)N[C@@H](CC(C)C)C(=O)N2C[C@H](O)C[C@H]2C(=O)N[C@@H](Cc2c[nH]c3ccccc23)C(=O)N[C@@H](CCN)C(=O)N[C@@H](Cc2cn(CC(=O)O)c3ccccc23)C(=O)N1C [Example 10550] (H-[Orn][Phe(4-F)][Pip]NP[Dap]L[Hyp]W[Dab][Trp(1-CH2COOH)][NMeNle][NMeNle]L; lactam 1-C)
1 to 9.9 | CCCC[C@H]1C(=O)N(C)[C@@H](CCCC)C(=O)N[C@@H](CC(C)C)C(=O)NCCC[C@H](N)C(=O)N[C@@H](Cc2ccc(OC)cc2)C(=O)N2CCCC[C@H]2C(=O)N[C@@H](CC(N)=O)C(=O)N2CCC[C@H]2C(=O)N[C@@H](CN)C(=O)N[C@@H](CCC(=O)O)C(=O)N2C[C@H](O)C[C@H]2C(=O)N[C@@H](Cc2c[nH]c3ccccc23)C(=O)N[C@@H](CCN)C(=O)N[C@@H](Cc2cn(CC(=O)O)c3ccccc23)C(=O)N1C [Example 10551] (H-[Orn]Y(Me)[Pip]NP[Dap]E[Hyp]W[Dab][Trp(1-CH2COOH)][NMeNle][NMeNle]L; lactam 1-C)
1 to 9.9 | CCCC[C@H]1C(=O)N(C)[C@@H](CCCC)C(=O)N[C@@H](CC(C)C)C(=O)N[C@H](C(N)=O)CCCC(=O)N[C@@H](Cc2ccc(O)cc2)C(=O)N2CCCC[C@H]2C(=O)N[C@@H](CC(=O)O)C(=O)N2CCC[C@H]2C(=O)N[C@@H](CN)C(=O)N[C@@H](CC(C)C)C(=O)N2C[C@H](O)C[C@H]2C(=O)N[C@@H](Cc2c[nH]c3ccccc23)C(=O)N[C@@H](CCN)C(=O)N[C@@H](Cc2cn(CC(=O)O)c3ccccc23)C(=O)N1C [Example 10552] (Y[Pip]DP[Dap]L[Hyp]W[Dab][Trp(1-CH2COOH)][NMeNle][NMeNle]L[Aad]-NH2; lactam N-14)
10 to 99 | CCCC[C@H]1C(=O)N(C)[C@@H](CCCC)C(=O)N[C@@H](CC(C)C)C(=O)N[C@H](C(N)=O)CCCC(=O)N[C@@H](Cc2ccc(C)cc2)C(=O)N2CCCC[C@H]2C(=O)N[C@@H](CC(=O)O)C(=O)N2CCC[C@H]2C(=O)N[C@@H](CN)C(=O)N[C@@H](CC(C)C)C(=O)N2C[C@H](O)C[C@H]2C(=O)N[C@@H](Cc2c[nH]c3ccccc23)C(=O)N[C@@H](CCN)C(=O)N[C@@H](Cc2cn(CC(=O)O)c3ccccc23)C(=O)N1C [Example 10553] ([Phe(4-Me)][Pip]DP[Dap]L[Hyp]W[Dab][Trp(1-CH2COOH)][NMeNle][NMeNle]L[Aad]-NH2; lactam N-14)
1 to 9.9 | CCCC[C@H]1C(=O)N(C)[C@@H](CCCC)C(=O)N[C@@H](CC(C)C)C(=O)N[C@H](C(N)=O)CCCC(=O)N[C@@H](Cc2ccc(OC)cc2)C(=O)N2CCCC[C@H]2C(=O)N[C@@H](CC(=O)O)C(=O)N2CCC[C@H]2C(=O)N[C@@H](CN)C(=O)N[C@@H](CC(C)C)C(=O)N2C[C@H](O)C[C@H]2C(=O)N[C@@H](Cc2c[nH]c3ccccc23)C(=O)N[C@@H](CCN)C(=O)N[C@@H](Cc2cn(CC(=O)O)c3ccccc23)C(=O)N1C [Example 10554] (Y(Me)[Pip]DP[Dap]L[Hyp]W[Dab][Trp(1-CH2COOH)][NMeNle][NMeNle]L[Aad]-NH2; lactam N-14)
10 to 99 | CCCC[C@H]1C(=O)N(C)[C@@H](CCCC)C(=O)N[C@@H](CC(C)C)C(=O)N[C@H](C(N)=O)CCCC(=O)N[C@@H](Cc2ccc(F)cc2)C(=O)N2CCCC[C@H]2C(=O)N[C@@H](CC(=O)O)C(=O)N2CCC[C@H]2C(=O)N[C@@H](CN)C(=O)N[C@@H](CC(C)C)C(=O)N2C[C@H](O)C[C@H]2C(=O)N[C@@H](Cc2c[nH]c3ccccc23)C(=O)N[C@@H](CCN)C(=O)N[C@@H](Cc2cn(CC(=O)O)c3ccccc23)C(=O)N1C [Example 10555] ([Phe(4-F)][Pip]DP[Dap]L[Hyp]W[Dab][Trp(1-CH2COOH)][NMeNle][NMeNle]L[Aad]-NH2; lactam N-14)
1 to 9.9 | CCCC[C@H]1C(=O)N(C)[C@@H](CCCC)C(=O)N[C@@H](CC(C)C)C(=O)N[C@H](C(N)=O)CCCC(=O)N[C@@H](Cc2ccc(Cl)cc2)C(=O)N2CCCC[C@H]2C(=O)N[C@@H](CC(=O)O)C(=O)N2CCC[C@H]2C(=O)N[C@@H](CN)C(=O)N[C@@H](CC(C)C)C(=O)N2C[C@H](O)C[C@H]2C(=O)N[C@@H](Cc2c[nH]c3ccccc23)C(=O)N[C@@H](CCN)C(=O)N[C@@H](Cc2cn(CC(=O)O)c3ccccc23)C(=O)N1C [Example 10556] ([Phe(4-Cl)][Pip]DP[Dap]L[Hyp]W[Dab][Trp(1-CH2COOH)][NMeNle][NMeNle]L[Aad]-NH2; lactam N-14)
